According to patent US20240300941A1, “HPK1 INHIBITORS, PREPARATION METHOD AND APPLICATION THEREOF” (ZHUHAI YUFAN BIOTECHNOLOGIES CO., LTD., priority 2018, published 2024):

Experiments:
HPK1 = HPK1 (Homo sapiens (Human), UniProt Q92918); assay: HPK1 ADP-Glo enzyme assay; assay type: biochemical; conditions: HPK1 protein 5 nM, MBP and ATP substrate, ADP-Glo readout
Protocol: The buffer used in the enzyme assay contains 5 mM MOPS (pH=7.2), 2.5 mM β-Glycerol Phosphate, 0.4 mM EDTA, 1 mM EGTA, 0.05 mM DTT, 5 mM MgCl2. The compound was dissolved in 100% DMSO at the concentration was 10 mM. The initial concentration of the test was 5 uM, and ten data points were diluted by three-fold gradient, and each point was repeatedly measured twice. The HPK1 protein was purchased from Thermo (Cat. No. PV6355) and diluted to 2× stock solution at the concentration of 10 nM (the final concentration of the enzyme assay was 5 nM). 2.5 µl of 2×HPK1 protein was added to each well of the plate containing the test compound, centrifuged at 1000 rpm for 30 seconds, and then incubated at 25° C. for 15 minutes. MBP protein was purchased from Millipore (Cat. No. 13-110) and ATP was purchased from Sigma (Cat. No. A7699-5G) and the two were formulated into 2× working solutions at concentrations of 4 uM and 80 uM. Added 2.5 μl mixture of 2×MBP and ATP, centrifuged at 1000 rpm for 30 seconds, then incubated at 25° C. for 90 minutes. Then added 5 ul of ADP-Glo™ (Promega, Cat. No. V9102) to the assay plate and incubated […] at 25° C. for 60 minutes. Finally, 10 ul of the kinase assay reagent (Promega, Cat. No. V9102) was added to the assay plate, centrifuged at 1000 rpm for 30 seconds at 25° C. for 60 minutes, and the […] intensity was determined.

[1] = test system: pSLP-76(Ser376) in Jurkat E6-1 cells; assay: Jurkat E6-1 pSLP-76(Ser376) HTRF experiment; assay type: cell-based; conditions: 4 hours compound incubation, anti-human CD3 antibody 20 minutes, Phospho-SLP-76 / SLP-76 HTRF
Protocol: Jurkat E6-1 cells were purchased from ATCC (Cat. No. TIB-152TM) and cultured overnight with RPMI 1640 containing 0.5% o FBS, after that 20 μL (10^7 cells/mL) cells were added to the experimental plates. Then the test compounds were diluted by three-fold gradient, and 10 different concentrations were prepared, and 5 μl of each was added to the experimental plate, and incubated for 4 hours in 37° C. incubator containing 5% CO2. Then 5 ul of 6× anti-human CD3 antibody (Biolegend, Cat. No. 300432) was added and incubated for 20 minutes in 37° C. incubator containing 5% CO2. Finally, the Phospho-SLP-76 and SLP-76 results were determined using the Cisbio Phospho-SLP-76 and SLP-76 HTRF assay kits (items: 63ADK076PEH and 63ADK077PEH, respectively). Based on the results, the IC50 of the compound is calculated.

Sequence of HPK1 (Q92918 whole entry): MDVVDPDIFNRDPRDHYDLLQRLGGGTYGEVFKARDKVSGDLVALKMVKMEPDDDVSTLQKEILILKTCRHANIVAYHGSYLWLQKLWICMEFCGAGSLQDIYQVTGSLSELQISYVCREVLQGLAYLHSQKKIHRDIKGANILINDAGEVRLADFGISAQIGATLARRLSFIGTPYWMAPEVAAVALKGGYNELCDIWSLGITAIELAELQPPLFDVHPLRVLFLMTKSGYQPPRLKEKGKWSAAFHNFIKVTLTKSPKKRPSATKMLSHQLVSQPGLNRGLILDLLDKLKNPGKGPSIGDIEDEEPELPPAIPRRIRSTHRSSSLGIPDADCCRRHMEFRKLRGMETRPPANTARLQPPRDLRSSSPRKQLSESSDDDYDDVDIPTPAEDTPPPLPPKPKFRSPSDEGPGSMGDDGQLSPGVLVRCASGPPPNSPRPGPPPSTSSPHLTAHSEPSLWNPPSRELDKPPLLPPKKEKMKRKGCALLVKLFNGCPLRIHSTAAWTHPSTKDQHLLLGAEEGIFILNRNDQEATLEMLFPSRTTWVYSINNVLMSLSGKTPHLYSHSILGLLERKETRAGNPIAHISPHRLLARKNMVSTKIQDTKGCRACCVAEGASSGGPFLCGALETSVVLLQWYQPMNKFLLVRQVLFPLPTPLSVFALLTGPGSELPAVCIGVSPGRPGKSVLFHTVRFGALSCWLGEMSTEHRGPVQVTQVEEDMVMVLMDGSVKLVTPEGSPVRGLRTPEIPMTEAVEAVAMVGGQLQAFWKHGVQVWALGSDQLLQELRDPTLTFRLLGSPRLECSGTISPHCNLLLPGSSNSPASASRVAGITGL

| Structure (SMILES) | IC50 (HPK1) | IC50 [1] |
| --- | --- | --- |
| CC(C)c1ncc(-c2cnc(N)c(OCc3cncc(C#CC(C)(C)O)c3)c2)s1 [A45] | 100 to 1000 nM | 1000 to 50000 nM |
| CN1CCC(c2ncc(-c3cnc(N)c(OCc4ccnc(C#CC(C)(C)O)c4)c3)s2)CC1 [A10] |  | < 1000 nM |
| CC(C)(O)C#Cc1cccc(COc2cc(-c3cnc(C4CCNCC4)s3)cnc2N)c1 [A42] |  | < 1000 nM |
| Cc1ncc(-c2cnc(N)c(OCc3ccncc3)c2)s1 [A35] | 100 to 1000 nM | 1000 to 50000 nM |
| CN1CCC(c2ncc(-c3cnc(N)c(OCc4cncc(C#CC(C)(C)O)c4)c3)s2)CC1 [A44] | < 100 nM | 1000 to 50000 nM |
| CN1CCC(c2ncc(-c3cnc(N)c(OCc4cccc(C#CC(C)(C)O)c4)c3)s2)CC1 [A3] |  | < 1000 nM |
| CC(C)(O)C#Cc1cccc(COc2cc(-c3cnc(C4CCOCC4)s3)cnc2N)c1 [A23] | < 100 nM | < 1000 nM |
| Nc1ncc(-c2cnc(C3CCCCC3)s2)cc1OCc1ccncc1 [A37] |  | < 1000 nM |
| CC(C)(O)C#Cc1cccc(COc2cc(-c3cnc(N4CCCCC4)s3)cnc2N)c1 [A29] | 100 to 1000 nM |  |
| CN1CCC(c2ccc(-c3cnc(N)c(OCc4ccncc4)c3)nc2)CC1 [A43] | 100 to 1000 nM | 1000 to 50000 nM |
| CN1CCC(n2cc(-c3cnc(N)c(OCc4cccc(C#CC(C)(C)O)c4)c3)cn2)CC1 [A32] | < 100 nM | < 1000 nM |
| Nc1ncc(-c2cnc(C3CCNCC3)s2)cc1OCc1ccncc1 [A7] |  | < 1000 nM |
| CN1CCC(c2ncc(-c3cnc(N)c(OCc4cccc(C#CC(C)(O)C(F)(F)F)c4)c3)s2)CC1 (stereo not drawn) [A33] | > 1000 nM |  |
| CN1CCC(c2ncc(-c3cnc(N)c(OCc4cccc(C#CC5(O)CCCC5)c4)c3)s2)CC1 [A34] |  | < 1000 nM |
| CN1CCN(c2ncc(-c3cnc(N)c(OCc4ccncc4)c3)s2)CC1 [A12] |  | < 1000 nM |
| CN1CCC(c2ncc(-c3cnc(N)c(OCc4cc(C#CC(C)(C)O)ccc4F)c3)s2)CC1 [A19] | < 100 nM | < 1000 nM |
| CC(C)(O)C#Cc1cccc(COc2cc(-c3cnc(C4CCN(CC(F)(F)F)CC4)s3)cnc2N)c1 [A27] | < 100 nM | 1000 to 50000 nM |
| CN1CCC(c2ncc(-c3cnc(N)c(OCc4ccc(F)cc4)c3)s2)CC1 [A5] | 100 to 1000 nM | 1000 to 50000 nM |
| Cc1nc(C2CCN(C)CC2)sc1-c1cnc(N)c(OCc2ccncc2)n1 [A15] | 100 to 1000 nM |  |

| Structure (SMILES) | IC50 (HPK1) | IC50 [1] |
| --- | --- | --- |
| CCC(C)c1ncc(-c2cnc(N)c(OCc3cccc(C#CC(C)(C)O)c3)c2)s1 (stereo not drawn) [A20] | < 100 nM | 1000 to 50000 nM |
| Nc1ncc(-c2cnc(C3CCOCC3)s2)cc1OCc1ccncc1 [A13] |  | < 1000 nM |
| CC(C)c1ncc(-c2cnc(N)c(OCc3cccc(C#CC(C)(C)O)c3)c2)s1 [A41] |  | 1000 to 50000 nM |
| CSc1ncc(-c2cnc(N)c(OCc3cccc(C#CC(C)(C)O)c3)c2)s1 [A17] | < 100 nM | 1000 to 50000 nM |
| CC(C)(O)C#Cc1ccc(F)c(COc2cc(-c3cnc(C4CCNCC4)s3)cnc2N)c1 [A31] | < 100 nM | < 1000 nM |
| CC1CN(c2ncc(-c3cnc(N)c(OCc4cccc(C#CC(C)(C)O)c4)c3)s2)CCN1C (stereo not drawn) [A22] | < 100 nM | < 1000 nM |
| C#Cc1cc(COc2cc(-c3cnc(C4CCN(C)CC4)s3)cnc2N)ccn1 [A39] | < 100 nM | < 1000 nM |
| CN1CCCN(c2ncc(-c3cnc(N)c(OCc4cccc(C#CC(C)(C)O)c4)c3)s2)CC1 [A24] | < 100 nM | < 1000 nM |
| CC(C)(O)C#Cc1cccc(COc2cc(-c3cnc(Oc4ccccc4)s3)cnc2N)c1 [A18] | 100 to 1000 nM |  |
| CC(Oc1cc(-c2cnc(C3CCN(C)CC3)s2)cnc1N)c1ccncc1 (stereo not drawn) [A4] | 100 to 1000 nM | 1000 to 50000 nM |
| CN1CCN(c2ncc(-c3cnc(N)c(OCc4cccc(C#CC(C)(C)O)c4)c3)s2)CC1 [A25] | < 100 nM | < 1000 nM |
| CN1CCC(c2ncc(-c3cnc(N)c(OCc4ccncc4)c3)s2)CC1 [A1] | < 100 nM | < 1000 nM |
| CN1CCC(c2ncc(-c3cnc(N)c(OCc4cccc(C#CC5(O)CCC5)c4)c3)s2)CC1 [A40] |  | < 1000 nM |
| CN1CCC(c2ncc(-c3cnc(N)c(OCc4ccnc(Cl)c4)c3)s2)CC1 [A8] |  | 1000 to 50000 nM |
| CC(C)(O)C#Cc1cccc(COc2cc(-c3cnc(C4CCCCC4)s3)cnc2N)c1 [A30] | 100 to 1000 nM |  |
| CC1CN(c2ncc(-c3cnc(N)c(OCc4cccc(C#CC(C)(C)O)c4)c3)s2)CC(C)N1C (stereo not drawn) [A26] | < 100 nM | < 1000 nM |
| CC(C)c1ncc(-c2cnc(N)c(OCc3ccncc3)c2)s1 [A36] |  | 1000 to 50000 nM |
| CN1CCC(c2ncc(-c3cnc(N)c(OCc4ccccc4)c3)s2)CC1 [A2] | 100 to 1000 nM | 1000 to 50000 nM |

The remaining lines, values ahead:

| IC50 (HPK1) | IC50 [1] | Structure (SMILES) |
| --- | --- | --- |
| < 100 nM | < 1000 nM | Nc1ncc(-c2cnn(C3CCOCC3)c2)cc1OCc1cccc(C#CC2(O)CC2)c1 [A47] |
| < 100 nM |  | CC(C)c1ncc(-c2cnc(N)c(OCc3cc(C#CC(C)(C)O)ccc3CN)c2)s1 [A67] |
| < 100 nM | < 1000 nM | CC(C)(O)C#Cc1cccc(COc2cc(-c3cnc(C4CCCNC4)s3)cnc2N)c1 (stereo not drawn) [A56] |
| 100 to 1000 nM |  | CN1CCC(c2ncc(-c3cnc(N)c(OCc4cccc(C#CC5(O)CCCCC5=O)c4)c3)s2)CC1 (stereo not drawn) [A61] |
| < 100 nM | < 1000 nM | Nc1ncc(-c2cnc(C3CCOCC3)s2)cc1OCc1cccc(C#CC2(O)CC2)c1 [A50] |
| > 1000 nM |  | Nc1ncc(-c2cccc(N3CCOCC3=O)c2)cc1OCc1ccncc1 [A85] |
| < 100 nM | < 1000 nM | Nc1ncc(-c2cnn(C3CCNCC3)c2)cc1OCc1cccc(C#CC2(O)CC2)c1 [A54] |
| < 100 nM | < 1000 nM | CC(C)(O)C#Cc1cccc(COc2cc(-c3cnc(C4CCCCN4)s3)cnc2N)c1 (stereo not drawn) [A49] |
| < 100 nM | < 1000 nM | Nc1ncc(-c2cnc(C3CCOCC3)s2)cc1OCc1cc(C#CC2(O)CC2)ccc1F [A46] |
| < 100 nM | < 1000 nM | Cc1ccc(C#CC(C)(C)O)cc1COc1cc(-c2cnc(C3CCN(C)CC3)s2)cnc1N [A60] |
| < 100 nM |  | CN1CCC(c2ncc(-c3cnc(N)c(OCc4cccc(C#CC(C)(C)O)c4)c3)s2)C1 (stereo not drawn) [A72] |
| < 100 nM | < 1000 nM | Cc1cc(C#CC(C)(C)O)cc(COc2cc(-c3cnc(C4CCN(C)CC4)s3)cnc2N)c1 [A71] |
| < 100 nM | < 1000 nM | Nc1ncc(-c2cnc(C3CCNCC3)s2)cc1OCc1cc(C#CC2(O)CC2)ccc1F [A53] |
| < 100 nM |  | CN1CCC(n2cc(-c3cnc(N)c(OCc4cc(C#CC(C)(C)O)ccc4F)c3)cn2)CC1 [A73] |
| < 100 nM |  | CC(C)(O)C#Cc1ccc(CN)c(COc2cc(-c3cnc(C4CCOCC4)s3)cnc2N)c1 [A84] |
| < 100 nM | < 1000 nM | CC1CN(C)CCN1c1ncc(-c2cnc(N)c(OCc3cccc(C#CC(C)(C)O)c3)c2)s1 (stereo not drawn) [A63] |
| < 100 nM | < 1000 nM | Nc1ncc(-c2cnn(C3CCOCC3)c2)cc1OCc1cc(C#CC2(O)CC2)ccc1F [A51] |
| < 100 nM | < 1000 nM | C=CC(C)(O)C#Cc1cccc(COc2cc(-c3cnc(C4CCN(C)CC4)s3)cnc2N)c1 (stereo not drawn) [A64] |
| < 100 nM |  | CC(C)(O)C#Cc1cccc(COc2cc(-c3cnn(C4CCOCC4)c3)cnc2N)c1 [A80] |
| < 100 nM |  | CC(C)c1ncc(-c2cnc(N)c(OCc3cc(C#CC(C)(C)O)cc(CN)c3)c2)s1 [A70] |
| 100 to 1000 nM |  | CN1CCC(c2ccnc(-c3cnc(N)c(OCc4cccc(C#CC(C)(C)O)c4)c3)c2)CC1 [A58] |
| < 100 nM |  | CN1CCC(c2ncc(-c3cnc(N)c(OCc4ccc(F)c(C#CC(C)(C)O)c4)c3)s2)CC1 [A75] |
| < 100 nM | < 1000 nM | COc1ccc(C#CC(C)(C)O)cc1COc1cc(-c2cnc(C3CCN(C)CC3)s2)cnc1N [A59] |
| < 100 nM |  | CN1CCC(c2ncc(-c3cnc(N)c(OCc4cc(C#CC(C)(C)O)cc(CN)c4)c3)s2)CC1 [A83] |
| < 100 nM |  | CN1CCN(C2CCN(c3ncc(-c4cnc(N)c(OCc5cccc(C#CC(C)(C)O)c5)c4)s3)CC2)CC1 [A69] |
| < 100 nM |  | CC(C)(O)C#Cc1cc(CN)cc(COc2cc(-c3cnc(C4CCOCC4)s3)cnc2N)c1 [A81] |
| < 100 nM |  | CN1CCC(n2cc(-c3cnc(N)c(OCc4cccc(C#CC(C)(O)CF)c4)c3)cn2)CC1 (stereo not drawn) [A74] |
| < 100 nM |  | CC(C)(O)C#Cc1cccc(COc2cc(-c3cnn(C4CCNCC4)c3)cnc2N)c1 [A79] |
| < 100 nM |  | CN1CCC(c2ncc(-c3cnc(N)c(OCc4cc(C#CC(C)(C)O)ccc4C(F)(F)F)c3)s2)CC1 [A76] |
